Measurements: patent publication US20140051576A1, “ACTIVE COMPOUND COMBINATIONS COMPRISING A (THIO)CARBOXAMIDE DERIVATIVE AND AN INSECTICIDAL OR ACARICIDAL OR NEMATICIDAL ACTIVE COMPOUND” (priority 2011, published 2014)
Where two headings read alike, the source gives them in different places.

Experiments:
[1] = test system: Phaedon cochleariae; assay: Phaedon cochleariae Larvae - Test (PHAECO spray application); format: in vivo
Description: Phaedon cochleariae—Test; (PHAECO Spray Application)
Solvent: 78 parts by weight of acetone • 1.5 parts by weight of N,N-dimethylformamide Emulsifier: 0.5 parts by weight of alkylarylpolyglycolether
Once dry, the leaf discs are infested with mustard beetle larvae (Phaedon cochleariae).

[2] = test system: Tetranychus urticae; assay: Tetranychus urticae - Test; OP-resistant (TETRUR spray application); format: in vivo; conditions: for mortality at 100 g/ha / mortality at 500 g/ha / mortality at 20 g/ha / mortality at 4 g/ha: Tetranychus urticae; for Mortality in % after 6 days obs.: single active ingredient
Description: Tetranychus urticae—Test; OP-Resistant (TETRUR Spray Application)
French beans (Phaseolus vulgaris) which are heavily infested with all stages of the two spotted spidermite (Tetranychus urticae), are sprayed with a preparation of the active ingredient at the desired concentration.

[3] = test system: Spodoptera frugiperda; assay: whole plant or invertebrate
Procedure: Spodoptera frugiperda—Test (SPODFR Spray Application)
Solvent: 78.0 parts by weight acetone • 1.5 parts by weight N,N-dimethylformamide Emulsifier: 0.5 parts by weight alkylarylpolyglycolether
Maize (Zea mais) leaf sections are sprayed with a preparation of the active ingredient of the desired concentration. Once dry, the leaf sections are infested with larvae of the fall armyworm (Spodoptera frugiperda).
After the specified period of time, the mortality in % is determined. 100% means that all caterpillars have been killed and 0% means that none of the caterpillars have been killed.

[4] = test system: Myzus persicae; assay: Myzus persicae - Test (MYZUPE spray application); format: in vivo
Description: Myzus persicae—Test; (MYZUPE Spray Application)
Chinese cabbage (Brassica pekinesis) leaf—disks infected with all instars of the green peach aphid (Myzus persicae), are sprayed with a preparation of the active ingredient at the desired concentration.
100% means that all aphids have been killed; 0% means that none of the aphids have been killed.

[5] = Phaedon cochleariae, 48 h, read-out: Mortality in % after 2 days obs.
[6] = Phaedon cochleariae, 144 h, read-out: Mortality in % after 6 days obs.
[7] = 48 h, read-out: Mortality in % after 2 days obs.
[8] = 144 h, read-out: Mortality in % after 6 days obs.
[9] = Spodoptera frugiperda, 48 h, read-out: Mortality in % after 2 days obs.
[10] = Spodoptera frugiperda, 144 h, read-out: Mortality in % after 6 days obs.
[11] = Myzus persicae, 24 h, read-out: Mortality in % after 1 day obs.
[12] = Myzus persicae, 144 h, read-out: Mortality in % after 6 days obs.

With `Cn1nc(C(F)F)c(C(=O)N(Cc2c(Cl)cccc2C(F)(F)F)C2CC2)c1F` [A-17, N-[2-chloro-6-(trifluoromethyl)benzyl]-N-cyclopropyl-3-(difluoromethyl)-5-fluoro-1-methyl-1H-pyrazole-4-carboxamide] the mortality at 100 g/ha [1, 5] was 0%, the mortality at 100 g/ha [1, 6] was 0% and the mortality at 100 g/ha [2, 7] was 0%. It also gave a mortality at 100 g/ha [2, 8] of 0%, a mortality at 100 g/ha [3, 9] of 0% and a mortality at 100 g/ha [3, 10] of 0%. For the same compound, the mortality at 100 g/ha [4, 11] was 0% and the mortality at 100 g/ha [4, 12] was 0%.
Compound `Cn1nc(C(F)F)c(C(=O)N(Cc2c(C(F)(F)F)ccc(Cl)c2F)C2CC2)c1F` [A-18, N-[3-chloro-2-fluoro-6-(trifluoromethyl)benzyl]-N-cyclopropyl-3-(difluoromethyl)-5-fluoro-1-methyl-1H-pyrazole-4-carboxamide] has a mortality at 500 g/ha [1, 5] of 0%, a mortality at 500 g/ha [1, 6] of 0% and a mortality at 500 g/ha [2, 7] of 0%. The mortality at 500 g/ha [2, 8] was 0%, the mortality at 500 g/ha [3, 10] was 0% and the mortality at 500 g/ha [4, 11] was 0%. The mortality at 500 g/ha [4, 12] was 0%.
For `CCOP(=S)(OCC)Oc1nc(Cl)c(Cl)cc1Cl` [B-1B.10, Chlorpyrifos], the mortality at 20 g/ha [1, 6] was 0%, the mortality at 20 g/ha [2, 7] was 0% and the mortality at 4 g/ha [2, 8] was 0%. It also gave a mortality at 4 g/ha [3, 10] of 67% and a mortality at 0.8 g/ha [4, 12] of 0%.
With `CC1(C)C(C=C(Cl)Cl)C1C(=O)OC(C#N)c1ccc(F)c(Oc2ccccc2)c1` (stereo not drawn) [B-3A.11, β-Cyfluthrin] the “Mortality in % after 6 days obs.” value ([1]; 0.16 g/ha) was 50%, the “Mortality in % after 6 days obs.” value ([1]; 0.8 g/ha) was 67% and the “Mortality in % after 6 days obs.” value ([2]; 4 g/ha) was 0%. The “Mortality in % after 6 days obs.” value ([3]; 0.16 g/ha) was 50%, the “Mortality in % after 6 days obs.” value ([4]; 0.16 g/ha) was 0% and the “Mortality in % after 1 day obs.” value ([4]; 0.8 g/ha) was 70%. The “Mortality in % after 6 days obs.” value ([4]; 0.8 g/ha) was 70%.
Compound `CC1(C)[C@H](C(=O)O[C@H](C#N)c2cccc(Oc3ccccc3)c2)[C@@H]1C=C(Br)Br` [B-3A.21, Deltamethrin] has a mortality at 0.16 g/ha [1, 6] of 0%, a mortality at 0.8 g/ha [1, 6] of 33% and a mortality at 4 g/ha [2, 8] of 20%. It also gave a mortality at 0.16 g/ha [3, 9] of 0%, a mortality at 0.032 g/ha [3, 10] of 0% and a mortality at 0.8 g/ha [3, 10] of 33%. It also gave a mortality at 0.8 g/ha [4, 11] of 80% and a mortality at 0.16 g/ha [4, 12] of 70%.
In the case of `CN/C(=N\[N+](=O)[O-])NCc1cnc(Cl)s1` [B-4A.2, Clothianidin], the mortality at 20 g/ha [1, 5] is reported as 83%, the mortality at 4 g/ha [1, 6] is reported as 0% and the mortality at 20 g/ha [2, 7] is reported as 0%. The mortality at 4 g/ha [2, 8] was 0%, the mortality at 20 g/ha [2, 8] was 0% and the mortality at 20 g/ha [3, 10] was 0%. For the same compound, the mortality at 4 g/ha [4, 11] was 0%.
With `CNC(=O)c1cc(C#N)cc(C)c1NC(=O)c1cc(Br)nn1-c1ncccc1Cl` [B-26.2, Cyantraniliprole (Cyazypyr)] the “Mortality in % after 2 days obs.” value ([1]; 0.8 g/ha) was 0%, the “Mortality in % after 6 days obs.” value ([1]; 0.8 g/ha) was 67% and the “Mortality in % after 6 days obs.” value ([2]; 20 g/ha) was 0%. For the same compound, the “Mortality in % after 6 days obs.” value ([3]; 0.16 g/ha) was 0%, the “Mortality in % after 1 day obs.” value ([4]; 0.8 g/ha) was 0% and the “Mortality in % after 6 days obs.” value ([4]; 0.8 g/ha) was 70%.
`O=C1C=C(N(Cc2ccc(Cl)nc2)CC(F)F)CO1` [B-27.16, 4-{[(6-chloropyridin-3-yl)methyl](2,2-difluoroethyl)-amino}furan-2(5H)-one] showed a mortality at 100 g/ha [1, 5] of 50%, a mortality at 20 g/ha [1, 6] of 0% and a mortality at 100 g/ha [2, 7] of 0%. It also gave a mortality at 100 g/ha [2, 8] of 0%, a mortality at 20 g/ha [3, 10] of 0% and a mortality at 4 g/ha [4, 11] of 0%. It also gave a mortality at 100 g/ha [4, 11] of 80%.
With Acetamiprid [B-4A.1] the “Mortality in % after 2 days obs.” value ([1]; 20 g/ha) was 50%, the “Mortality in % after 6 days obs.” value ([1]; 100 g/ha) was 0% and the “Mortality in % after 2 days obs.” value ([2]; 20 g/ha) was 0%. For the same compound, the “Mortality in % after 6 days obs.” value ([3]; 20 g/ha) was 0% and the “Mortality in % after 1 day obs.” value ([4]; 0.8 g/ha) was 70%.
Fipronil [B-2B.2] was tested, and the “Mortality in % after 6 days obs.” value ([1]; 0.16 g/ha) was 50%, the “Mortality in % after 2 days obs.” value ([1]; 0.8 g/ha) was 33% and the “Mortality in % after 2 days obs.” value ([1]; 4 g/ha) was 67%. For the same compound, the “Mortality in % after 6 days obs.” value ([2]; 100 g/ha) was 0%, the “Mortality in % after 2 days obs.” value ([3]; 100 g/ha) was 67% and the “Mortality in % after 6 days obs.” value ([4]; 20 g/ha) was 0%.
With Transfluthrin [B-3A.46] the “Mortality in % after 6 days obs.” value ([1]; 4 g/ha) was 0%, the “Mortality in % after 6 days obs.” value ([1]; 20 g/ha) was 0% and the “Mortality in % after 2 days obs.” value ([1]; 100 g/ha) was 67%. For the same compound, the “Mortality in % after 6 days obs.” value ([2]; 100 g/ha) was 0%, the “Mortality in % after 6 days obs.” value ([3]; 0.8 g/ha) was 33% and the “Mortality in % after 6 days obs.” value ([3]; 4 g/ha) was 33%. For the same compound, the “Mortality in % after 6 days obs.” value ([3]; 20 g/ha) was 50%, the “Mortality in % after 1 day obs.” value ([4]; 20 g/ha) was 0% and the “Mortality in % after 6 days obs.” value ([4]; 20 g/ha) was 0%. The “Mortality in % after 1 day obs.” value ([4]; 100 g/ha) was 80%.
